{"source": "patent US8574323B2", "about": "“Marker compounds for liquid hydrocarbons and other fuels and oils” (Angus Chemical Company, priority 2010, dated 2013)", "key": {"[1]": {"test": "Metal adsorptivity of the marker from xylene solution (GC)", "type": "physicochemical", "details": "Metals: 5 grams metal shavings per 100 mL, room temperature, 8 hours", "protocol": "(§1) The stability and extractability of the markers was performed using xylene solutions containing between 100-1000 ppm makers and an equivalent amount of squalene internal reference standard using the following protocols:\n(§2) Laundering Agents: • 1) 5% sulfuric acid • 2) 98% sulfuric acid • 3) 5% NaOH solution • 4) 50% NaOH solution • 5) Activated charcoal (use 98 parts xylenes solution to 2 parts charcoal) • 6) 5% bleach To test for metal adsorptivity, 100 mL marked xylene tests solution is treated with 5 grams metal shavings at room temperature for 8 hours. GC analysis is again used to determine any loss of marker to the metal surface."}, "[2]": {"test": "Laundering stability and extractability of the marker in xylene solution (GC against un-laundered reference)", "type": "physicochemical", "details": "8 hours; for marker: relative to control = 100", "protocol": "as §1\nMix 95 parts marked xylenes with 5 parts laundering agent in a 100 mL vial. Mix gently for 8 hours using a magnetic stir bar. Stop mixing and remove a xylene solution aliquot. Analyze by GC and compare marker response to reference (un-laundered) sample.\nas §2"}}}
{"smiles": "Cc1ccc(C)c(Cc2ccc(-c3ccc(Cc4cc(C)ccc4C)cc3)cc2)c1", "note": "[4,4′-bis(2,5-dimethylbenzyl)-1,1′-biphenyl]", "values": [{"measurement": "% change", "setting": "[1]", "value": "+4%"}, {"measurement": "marker", "setting": "[1]; relative to control = 100", "value": 104}, {"measurement": "% change", "setting": "[2]; 2% charcoal (activated)", "value": "−6", "unit": "%"}, {"measurement": "marker", "setting": "[2]; 2% charcoal (activated)", "value": 94}, {"measurement": "% change", "setting": "[2]; 5% H2SO4 laundering", "value": "−1.75", "unit": "%"}, {"measurement": "marker", "setting": "[2]; 5% H2SO4 laundering", "value": 98.25}, {"measurement": "% change", "setting": "[2]; 5% NaOH laundering", "value": "−2.79", "unit": "%"}, {"measurement": "marker", "setting": "[2]; 5% NaOH laundering", "value": 102.79}, {"measurement": "% change", "setting": "[2]; 5% bleach laundering", "value": "−65", "unit": "%"}, {"measurement": "marker", "setting": "[2]; 5% bleach laundering", "value": 35}, {"measurement": "% change", "setting": "[2]; 50% NaOH laundering", "value": "−1.74", "unit": "%"}, {"measurement": "marker", "setting": "[2]; 50% NaOH laundering", "value": 98.26}, {"measurement": "% change", "setting": "[2]; 98% H2SO4 laundering", "value": 0.47, "unit": "%"}, {"measurement": "marker", "setting": "[2]; 98% H2SO4 laundering", "value": 100.47}]}
